Patent US20190151625A1, “DRUG DELIVERY APPARATUS AND METHOD” (INNOVENTIONS LTD., priority 2016, published 2019)

Test: Release of lidocaine dissolved in oil through the silicone balloon wall of device 20
Type: physicochemical
Experimental: Experiments were performed using Lidocaine dissolved in oily substances using two different expansion volumes (one with 10 ml, the other with 16 ml) of the balloon of the device 20.
A. The balloon was expanded by injection of 10 ml of the oily solution into the balloon. A series of 4 experiments using lidocaine dissolved in oil was performed. The results were as follows: • 1. After 28 days—436 mg out of 500 mg was released. • 2. After 29 days—all the 500 mg was released (out of 500 mg). • 3. After 22 days—all the 500 mg was released (out of 500 mg). • 4. After 63 days—all the 1000 mg was released (out of 1000 mg).
B. The balloon was expanded by injection of 16 ml of the oily solution into the balloon. 2 groups and a series of 3 experiments using lidocaine dissolved in oil were performed. The results were as follows: • 1. After 21 days: —all the 500 mg was released (out of 500 mg) • […] was released, out of 1000 mg • 1086 mg was released, out of […] • 2. After 84 days—all the 500 mg was released (out of 500 mg) • all the 1000 mg was released (out of 1000 mg) • all the 1500 mg was released (out of 1500 mg)

Compound: CCN(CC)CC(=O)Nc1c(C)cccc1C [Lidocaine]
- release through the silicone balloon wall (Lidocaine dissolved in oily substances, balloon expansion volumes 10 ml and 16 ml): released in large quantities
- amount released (balloon expanded with 10 ml oily solution, experiment 1, after 28 days, out of 500 mg): 436 mg
- amount released (balloon expanded with 10 ml oily solution, experiment 2, after 29 days, out of 500 mg): 500 mg
- amount released (balloon expanded with 10 ml oily solution, experiment 3, after 22 days, out of 500 mg): 500 mg
- amount released (balloon expanded with 10 ml oily solution, experiment 4, after 63 days, out of 1000 mg): 1000 mg
- amount released (balloon expanded with 16 ml oily solution, after 21 days, out of 500 mg): 500 mg
- amount released (balloon expanded with 16 ml oily solution, after 21 days, out of 1500 g): 1086 mg
- amount released (balloon expanded with 16 ml oily solution, after 84 days, out of 500 mg): 500 mg
- amount released (balloon expanded with 16 ml oily solution, after 84 days, out of 1000 mg): 1000 mg
- amount released (balloon expanded with 16 ml oily solution, after 84 days, out of 1500 mg): 1500 mg
